This note sets out measurements from US20060160174A1, “Modified l49-sfv exhibiting increased stability and methods of use thereof” (priority 2002, published 2006).

The test concerns H3677 melanoma cells. Put plainly: in vitro cytotoxicity assay with prodrug C-Mel (alamarBlue). The class given is cell-based. To be noted: Homo sapiens. The protocol: H3677 cells were plated into 96 well microtiter plates (5×10^3 cells/well in 100 μl of RPMI 1640 media (Invitrogen) with 10% fetal bovine serum) and allowed to adhere overnight. The cells were treated with FP95, FP990 or FP999 fusion (see Table 2) proteins at 10 nM. […] Melphalan was also added at the same concentrations to cells treated with medium alone. After 1 hour at 37° C. cells were washed three times with medium and incubated for 96 hours at 37° C. The cells were then incubated with 10% alamarBlue™ for 3 hours at 37° C. and excitation was measured in an ELISA plate reader at 570 nm.
The cells were treated with 10 nM L49-sFv-bL, unbound material was washed off and serial dilutions of C-Mel were added. C-Mel and the active drug, melphalan, were also applied to cells treated with media alone. Cell viability was measured using the redox indicator alamarBlue™.

Consider `N[C@@H](Cc1ccc(N(CCCl)CCCl)cc1)C(=O)O` [melphalan], for which the IC50 is roughly 5 µM.
